Literature values in patent US9872864B2, “Sustained release composition of prostacyclin” (priority 2011, dated 2018).

Settings: background statement

CCCCC[C@H](O)CC[C@@H]1[C@H]2Cc3cccc(OCC(=O)O)c3C[C@H]2C[C@H]1O [treprostinil]
half-life: 4 h
